Bounds are passed on as bounds.

The experiment can be described thus: -log concentration required to induce 50% maximum lipogenic activity against Peroxisome proliferator activated receptor gamma.
A word on the EC50: it is the midpoint of the concentration-response curve. Read a high EC50 as a need for much substance. `CN(CCOc1ccc(CC(Nc2ccc(Cl)cc2C(=O)c2ccccc2)C(=O)O)cc1)c1nc2ccccc2o1` (stereo unspecified) registered an EC50 of 178 nM.
Take `CCOC(=O)c1ccccc1NC(Cc1ccc(OCCc2nc(-c3ccccc3)oc2C)cc1)C(=O)O` (stereo unspecified): the EC50 turned out to be 0.427 nM.
Then `CN(CCOc1ccc(CC(Nc2ccccc2C(=O)c2ccc(-c3ccccc3)cc2)C(=O)O)cc1)c1nc2ccccc2o1` (stereo unspecified), with 339 nM; and `CSc1nc(NC(Cc2ccc(OCCN(C)c3nc4ccccc4o3)cc2)C(=O)O)c(C(=O)c2ccccc2)s1` (stereo unspecified), with less than 2510 nM; and `Cc1oc(-c2ccccc2)nc1CCOc1ccc(CC(Nc2ccccc2C(=O)c2cccc(CO)c2)C(=O)O)cc1` (stereo unspecified), with 759 nM.
Then `CNC(=O)c1ccccc1NC(Cc1ccc(OCCc2nc(-c3ccccc3)oc2C)cc1)C(=O)O` (stereo unspecified), with 363 nM; and `CN(CCOc1ccc(CC(Nc2ccccc2C(=O)c2cccc(OCc3ccccc3)c2)C(=O)O)cc1)c1nc2ccccc2o1` (stereo unspecified), with 891 nM; and `COc1ccc(C(=O)c2ccccc2NC(Cc2ccc(OCCN(C)c3nc4ccccc4o3)cc2)C(=O)O)cc1` (stereo unspecified), with 95 nM.
Then `CN(CCOc1ccc(CC(Nc2ccccc2C(=O)c2ccc(C(F)(F)F)cc2)C(=O)O)cc1)c1nc2ccccc2o1` (stereo unspecified), with 69 nM; and `Cc1oc(-c2ccccc2)nc1CCOc1ccc(CC(Nc2ccccc2C(=O)OC(C)C)C(=O)O)cc1` (stereo unspecified), with 3.2 nM.
Consider `Cc1oc(-c2ccccc2)nc1CCOc1ccc(CC(Nc2ccccc2C(=O)N(C)C)C(=O)O)cc1` (stereo unspecified), for which the EC50 is more than 1000 nM.
Molecule `CN(CCOc1ccc(CC(Nc2ccccc2C(=O)c2cccc(C(F)(F)F)c2)C(=O)O)cc1)c1nc2ccccc2o1` (stereo unspecified) registered an EC50 of 27 nM.
Then `Cc1oc(-c2ccccc2)nc1CCOc1ccc(CC(Nc2ccccc2C(=O)c2cccc(CN(C)C)c2)C(=O)O)cc1` (stereo unspecified), with 1180 nM.
Under `Cc1oc(-c2ccccc2)nc1CCOc1ccc(CC(Nc2ccccc2C(=O)c2cccnc2)C(=O)O)cc1` (stereo unspecified) stands 17 nM; under `COc1cccc(C(=O)c2ccccc2NC(Cc2ccc(OCCN(C)c3nc4ccccc4o3)cc2)C(=O)O)c1` (stereo unspecified), 155 nM; under `Cc1ccc(C(=O)c2ccccc2NC(Cc2ccc(OCCN(C)c3nc4ccccc4o3)cc2)C(=O)O)cc1` (stereo unspecified), 12 nM.
`CN(CCOc1ccc(CC(Nc2ccccc2C(=O)c2ccc(OCc3ccccc3)cc2)C(=O)O)cc1)c1nc2ccccc2o1` (stereo unspecified) showed an EC50 of 676 nM.
The molecule `CN(CCOc1ccc(CC(Nc2ccccc2C(=O)C2CCCCCC2)C(=O)O)cc1)c1nc2ccccc2o1` (stereo unspecified) came in with an EC50 of 66 nM.
As for `Cc1cccc(C(=O)c2ccccc2NC(Cc2ccc(OCCN(C)c3nc4ccccc4o3)cc2)C(=O)O)c1` (stereo unspecified), it took 14 nM to reach a half-maximal effect (EC50).
Under `CN(CCOc1ccc(CC(Nc2cscc2C(=O)c2ccccc2)C(=O)O)cc1)c1nc2ccccc2o1` (stereo unspecified) stands 1.4 nM; under `CN(CCOc1ccc(CC(Nc2ccccc2C(=O)C2CCCC2)C(=O)O)cc1)c1nc2ccccc2o1` (stereo unspecified), 24 nM; under `CN(CCOc1ccc(CC(Nc2ccccc2C(=O)c2ccccc2C(F)(F)F)C(=O)O)cc1)c1nc2ccccc2o1` (stereo unspecified), 71 nM.
Then `CN(CCOc1ccc(CC(Nc2ccccc2C(=O)c2cccs2)C(=O)O)cc1)c1nc2ccccc2o1` (stereo unspecified), with 78 nM; and `Cc1oc(-c2ccccc2)nc1CCOc1ccc(CC(Nc2ccccc2C(=O)c2cccc(N)c2)C(=O)O)cc1` (stereo unspecified), with 132 nM; and `COc1ccccc1C(=O)c1ccccc1NC(Cc1ccc(OCCN(C)c2nc3ccccc3o2)cc1)C(=O)O` (stereo unspecified), with 501 nM.
Then `CN(CCOc1ccc(CC(Nc2sccc2C(=O)c2ccccc2)C(=O)O)cc1)c1nc2ccccc2o1` (stereo unspecified), with 95 nM; and `Cc1oc(-c2ccccc2)nc1CCOc1ccc(CC(Nc2ccccc2C(=O)c2ccncc2)C(=O)O)cc1` (stereo unspecified), with 107 nM; and `Cc1oc(-c2ccccc2)nc1CCOc1ccc(C[C@@H](Nc2ccccc2C(=O)C2CCCCC2)C(=O)O)cc1`, with 372 nM.
In the case of `Cc1oc(-c2ccccc2)nc1CCOc1ccc(CC(Nc2ccccc2C(=O)c2ccc(CN(C)C)cc2)C(=O)O)cc1` (stereo unspecified), it took 977 nM to reach a half-maximal effect (EC50).
Then `CCCOC(=O)c1ccccc1NC(Cc1ccc(OCCc2nc(-c3ccccc3)oc2C)cc1)C(=O)O` (stereo unspecified), with 13 nM; and `Cc1oc(-c2ccccc2)nc1CCOc1ccc(CC(Nc2ccccc2C(=O)O)C(=O)O)cc1` (stereo unspecified), with more than 10000 nM.
Take `CN(CCOc1ccc(CC(Nc2ccccc2C(=O)c2ccccc2)C(=O)O)cc1)c1nc2ccccc2o1` (stereo unspecified): the EC50 worked out at 4.4 nM.
Under `Cc1oc(-c2ccccc2)nc1CCOc1ccc(CC(Nc2ccccc2C(=O)c2ccc(CO)cc2)C(=O)O)cc1` (stereo unspecified) stands 174 nM; under `CN(CCOc1ccc(CC(Nc2ccsc2C(=O)c2ccccc2)C(=O)O)cc1)c1nc2ccccc2o1` (stereo unspecified), 3.5 nM; under `Cc1ccc(NC(Cc2ccc(OCCN(C)c3nc4ccccc4o3)cc2)C(=O)O)c(C(=O)c2ccccc2)c1` (stereo unspecified), 63 nM.
Then `Cc1ccccc1C(=O)c1ccccc1NC(Cc1ccc(OCCN(C)c2nc3ccccc3o2)cc1)C(=O)O` (stereo unspecified), with 6.9 nM; and `CN(CCOc1ccc(CC(Nc2ccccc2C(=O)c2ccsc2)C(=O)O)cc1)c1nc2ccccc2o1` (stereo unspecified), with 72 nM; and `CN(CCOc1ccc(C[C@H](Nc2ccccc2C(=O)C2CCCCC2)C(=O)O)cc1)c1nc2ccccc2o1`, with 8.5 nM.
Then `CN(CCOc1ccc(CC(Nc2ccncc2C(=O)c2ccccc2)C(=O)O)cc1)c1nc2ccccc2o1` (stereo unspecified), with 724 nM; and `CN(CCOc1ccc(CC(Nc2ccccc2C(=O)c2cccc3ccccc23)C(=O)O)cc1)c1nc2ccccc2o1` (stereo unspecified), with 2.7 nM.
Molecule `Cc1oc(-c2ccccc2)nc1CCOc1ccc(CC(Nc2ccccc2C(=O)c2cccc(C(=O)O)c2)C(=O)O)cc1` (stereo unspecified) gave an EC50 of 1580 nM.

The record behind these values is BindingDB's records for doi:10.1021/jm980414r (Glaxo Wellcome Research and Development, 1998).
